Results as given in patent US20230203098A1, “HUMAN TRANSFERRIN RECEPTOR BINDING PEPTIDE” (priority 2020, published 2023).
Like-named read-outs stand apart in the source and are kept apart here. Where a SMILES comes first, the peptide text is derived from it. Bridges are numbered along the chain shown (N, C = ends). [ ]: non-standard residue; d: D form. The star is where a group is joined. X2 = O=C(O)c1cc(C(=O)*)ccc1-c1c2ccc(=O)cc-2oc2cc(O)ccc12; PEG12 = NCCOCCOCCOCCOCCOCCOCCOCCOCCOCCOCCOCCOCCC(=O)O; NMePhe(3-Cl) = CN[C@@H](Cc1cccc(Cl)c1)C(=O)O; NMeW = CN[C@@H](Cc1c[nH]c2ccccc12)C(=O)O; Phe(4-Cl) = N[C@@H](Cc1ccc(Cl)cc1)C(=O)O; Lys(N3) = [N-]=[N+]=NCCCC[C@H](N)C(=O)O; NMeY = CN[C@@H](Cc1ccc(O)cc1)C(=O)O; NMeF = CN[C@@H](Cc1ccccc1)C(=O)O

Target: transferrin receptor (hTfR) (Homo sapiens, UniProt P02786)
Sequence (P02786 whole entry): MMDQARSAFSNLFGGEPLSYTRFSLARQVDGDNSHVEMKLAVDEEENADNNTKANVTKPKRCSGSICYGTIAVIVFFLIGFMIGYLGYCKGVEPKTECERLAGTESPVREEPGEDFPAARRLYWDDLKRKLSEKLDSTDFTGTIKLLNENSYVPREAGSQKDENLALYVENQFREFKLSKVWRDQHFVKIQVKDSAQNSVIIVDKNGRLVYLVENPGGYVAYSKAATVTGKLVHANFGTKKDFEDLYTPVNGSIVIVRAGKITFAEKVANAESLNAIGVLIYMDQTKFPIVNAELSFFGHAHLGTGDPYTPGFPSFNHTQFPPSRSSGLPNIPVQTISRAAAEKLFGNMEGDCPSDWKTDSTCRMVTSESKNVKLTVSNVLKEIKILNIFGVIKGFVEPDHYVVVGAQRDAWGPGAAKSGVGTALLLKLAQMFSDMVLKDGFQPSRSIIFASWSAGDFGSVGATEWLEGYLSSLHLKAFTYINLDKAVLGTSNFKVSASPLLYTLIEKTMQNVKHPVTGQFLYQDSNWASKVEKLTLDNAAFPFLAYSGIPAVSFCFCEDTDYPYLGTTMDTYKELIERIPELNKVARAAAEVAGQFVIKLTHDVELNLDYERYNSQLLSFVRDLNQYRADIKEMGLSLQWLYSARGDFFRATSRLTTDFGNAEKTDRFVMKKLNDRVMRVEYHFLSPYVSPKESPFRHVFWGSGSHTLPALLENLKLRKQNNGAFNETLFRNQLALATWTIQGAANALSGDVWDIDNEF
Test: Intermolecular interaction evaluation test between transferrin receptor (hTfR) and peptide by surface plasmon resonance (SPR)
Assay type: binding
Method in brief: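 hTfR captured on Ni-NTA chip then amine-coupled; peptides run single-cycle kinetics at 5–100 nM in 10 mM HEPES pH 8.0, 150 mM NaCl, 0.05% Tween 20, 0.1% BSA, 1.0% DMSO. KD from least-squares curve fitting of sensorgrams.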

[1] = SPR, linker and payload (FITC, VivoTag) conjugates, read-out: KD
[2] = binding to hTfR by SPR, Table 2 peptides, read-out: KD value (SPR) class

Structure (SMILES): CC[C@H](C)[C@@H]1NC(=O)[C@H](Cc2ccc(O)cc2)NC(=O)[C@H](Cc2ccc(O)cc2)NC(=O)[C@H](CC(N)=O)NC(=O)[C@H](Cc2c[nH]c3ccccc23)NC(=O)[C@H](C(C)C)NC(=O)[C@H](Cc2c[nH]c3ccccc23)NC(=O)[C@H](C(C)C)NC(=O)[C@H]([C@@H](C)O)NC(=O)[C@H](CCCNC(=N)N)NC(=O)[C@H](CO)NC(=O)[C@H](CC(N)=O)NC(=O)[C@H](C)NC(=O)CSC[C@@H](C(=O)NCCOCCOCCOCCOCCOCCOCCOCCOCCOCCOCCOCCOCCC(=O)N[C@@H](CCCCNC(=O)c2ccc(-c3c4ccc(=O)cc-4oc4cc(O)ccc34)c(C(=O)O)c2)C(N)=O)NC(=O)[C@H](CCCNC(=N)N)NC(=O)[C@H]([C@@H](C)O)NC(=O)[C@H](C(C)C)NC1=O [compound 157] ({CH2CO}-ANSRTVWVWNYYIVTRC[PEG12]K(X2)-NH2; thioether N-17)
- Kd [1]: 1 to 100 nM

Structure (SMILES): CC[C@H](C)[C@@H]1NC(=O)[C@H](Cc2ccc(O)cc2)NC(=O)[C@H](Cc2ccc(O)cc2)NC(=O)[C@H](CC(N)=O)NC(=O)[C@H](Cc2c[nH]c3ccccc23)NC(=O)[C@H](C(C)C)NC(=O)[C@H](Cc2ccccc2)NC(=O)[C@H](C(C)C)NC(=O)[C@H](C)NC(=O)CSC[C@@H](C(N)=O)NC(=O)[C@H](Cc2ccc(O)cc2)N(C)C(=O)[C@H](Cc2ccc(O)cc2)NC(=O)[C@H](C)NC(=O)[C@H](CCC(=O)O)NC(=O)[C@H]([C@@H](C)CC)NC1=O [compound 252]
- Kd [2]: 100 to 1000 nM

Structure (SMILES): CC[C@H](C)[C@@H]1NC(=O)[C@H](Cc2ccc(OC)cc2)NC(=O)[C@H](Cc2ccc(O)cc2)NC(=O)[C@H](CC(N)=O)NC(=O)[C@H](Cc2c[nH]c3ccccc23)N(C)C(=O)[C@H](C(C)C)NC(=O)[C@H](Cc2cccc(Cl)c2)N(C)C(=O)[C@H](CCC(=O)O)NC(=O)[C@H](C)NC(=O)CSC[C@@H](C(N)=O)NC(=O)[C@H](Cc2ccc(O)cc2)N(C)C(=O)[C@H](Cc2ccccc2)NC(=O)[C@H](CCCCN)NC(=O)[C@H](C)NC(=O)[C@H]([C@@H](C)CC)NC1=O [compound 225] ({CH2CO}-AE[NMePhe(3-Cl)]V[NMeW]NYY(Me)IIAKF[NMeY]C-NH2; thioether N-15)
- Kd (SPR, peptides, linker-added peptides and FITC conjugates, Patent ID 203-230, read-out: KD): 1 to 100 nM

Structure (SMILES): CC[C@H](C)[C@@H]1NC(=O)[C@H](Cc2ccc(O)cc2)NC(=O)[C@H](Cc2ccc(O)cc2)NC(=O)[C@H](CC(N)=O)NC(=O)[C@H](Cc2c[nH]c3ccccc23)NC(=O)[C@H](C(C)C)NC(=O)[C@H](Cc2ccccc2)NC(=O)[C@H](C(C)C)NC(=O)[C@H](C)NC(=O)CSC[C@@H](C(=O)NCCOCCOCCOCCOCCOCCOCCOCCOCCOCCOCCOCCOCCC(=O)N[C@@H](CCCCNC(=O)c2ccc(-c3c4ccc(=O)cc-4oc4cc(O)ccc34)c(C(=O)O)c2)C(N)=O)NC(=O)[C@H](CC(N)=O)NC(=O)[C@@H]2CCCN2C(=O)[C@H](C(C)C)NC(=O)[C@H](CC(N)=O)NC(=O)[C@H](CCCNC(=N)N)NC(=O)CNC(=O)[C@H](C(C)C)NC1=O [compound 152] ({CH2CO}-AVFVWNYYIVGRNVPNC[PEG12]K(X2)-NH2; thioether N-17)
- Kd [1]: < 1 nM

Structure (SMILES): CC[C@H](C)[C@@H]1NC(=O)[C@H](Cc2ccc(O)cc2)NC(=O)[C@H](Cc2ccc(O)cc2)NC(=O)[C@H](CC(N)=O)NC(=O)[C@H](Cc2c[nH]c3ccccc23)NC(=O)[C@H](C(C)C)NC(=O)[C@H](Cc2ccccc2)NC(=O)[C@H](C(C)C)NC(=O)[C@H](C)NC(=O)CSC[C@@H](C(=O)NCCOCCOCCOCCOCCOCCOCCOCCOCCOCCOCCOCCOCCC(=O)N[C@@H](CCCCNC(=O)c2ccc(-c3c4ccc(=O)cc-4oc4cc(O)ccc34)c(C(=O)O)c2)C(N)=O)NC(=O)[C@H](CCCNC(=N)N)NC(=O)[C@H](Cc2ccccc2)NC(=O)[C@H](CCCNC(=N)N)NC(=O)[C@H](CC(=O)O)NC(=O)[C@H]([C@@H](C)CC)NC1=O [compound 148] ({CH2CO}-AVFVWNYYIIDRFRC[PEG12]K(X2)-NH2; thioether N-15)
- Kd [1]: 1 to 100 nM

Structure (SMILES): CC[C@H](C)[C@@H]1NC(=O)[C@H](Cc2ccc(O)cc2)NC(=O)[C@H](Cc2ccc(O)cc2)NC(=O)[C@H](CC(N)=O)NC(=O)[C@H](Cc2c[nH]c3ccccc23)NC(=O)[C@H](C(C)C)NC(=O)[C@H](Cc2ccccc2)N(C)C(=O)[C@H](C(C)C)NC(=O)[C@H](C)NC(=O)CSC[C@@H](C(=O)NCC(=O)NCC(=O)N[C@@H](CO)C(=O)N[C@@H](CCCCNC(=O)C2CCC(CN3C(=O)C=CC3=O)CC2)C(N)=O)NC(=O)[C@H](Cc2ccc(O)cc2)N(C)C(=O)[C@H](Cc2ccc(O)cc2)NC(=O)[C@H](CCCNC(=N)N)NC(=O)[C@H](CCCNC(=N)N)NC(=O)[C@H]([C@@H](C)CC)NC1=O (stereo partly shown) [compound 194]
- Kd (hTfR binding by SPR, hTfR No. 894 variant peptides, linker-added peptides and payload conjugates (Table 2), read-out: KD value obtained from the SPR measurement): 1 to 100 nM

Structure (SMILES): CC[C@H](C)[C@@H]1NC(=O)[C@H](Cc2ccc(O)cc2)NC(=O)[C@H](Cc2ccc(O)cc2)NC(=O)[C@H](CC(N)=O)NC(=O)[C@H](Cc2c[nH]c3ccccc23)NC(=O)[C@H](C(C)C)NC(=O)[C@H](Cc2ccccc2)N(C)C(=O)[C@H](C(C)C)NC(=O)[C@H](C)NC(=O)CSC[C@@H](C(=O)N[C@H](CCC(=O)O)C(N)=O)NC(=O)[C@H](Cc2ccc(O)cc2)N(C)C(=O)[C@H](Cc2ccc(O)cc2)NC(=O)[C@H](CCCNC(=N)N)NC(=O)[C@H](C)NC(=O)[C@H]([C@@H](C)CC)NC1=O [compound 291] ({CH2CO}-AV[NMeF]VWNYYIIARY[NMeY]C[dE]-NH2; thioether N-15)
- Kd (surface plasmon resonance, peptide vs hTfR, read-out: KD value, hTfR binding by SPR (class symbol)): 1 to 100 nM

Structure (SMILES): CC[C@H](C)[C@@H]1NC(=O)[C@H](Cc2ccc(O)cc2)NC(=O)[C@H](Cc2ccc(O)cc2)NC(=O)[C@H](CC(N)=O)NC(=O)[C@H](Cc2c[nH]c3ccccc23)NC(=O)[C@H](C(C)C)NC(=O)[C@H](Cc2ccccc2)N(C)C(=O)[C@H](C(C)C)NC(=O)[C@H](C)NC(=O)CSC[C@@H](C(=O)NCCOCCOCCOCCOCCOCCOCCOCCOCCOCCOCCOCCOCCC(N)=O)NC(=O)[C@H](Cc2ccc(O)cc2)N(C)C(=O)[C@H](Cc2ccc(O)cc2)NC(=O)[C@H](CCCNC(=N)N)NC(=O)[C@H](CCCNC(=N)N)N(C)C(=O)[C@H]([C@@H](C)CC)NC1=O [compound 112]
- Kd (SPR, hTfR No. 894 variants with PEG12c linker (Table 2), read-out: KD): 1 to 100 nM

Structure (SMILES): CC[C@H](C)[C@@H]1NC(=O)[C@H](Cc2ccc(OC)cc2)NC(=O)[C@H](Cc2ccc(O)cc2)NC(=O)[C@H](CC(N)=O)NC(=O)[C@H](Cc2c[nH]c3ccccc23)NC(=O)[C@H](C(C)C)NC(=O)[C@H](Cc2cccc(Cl)c2)N(C)C(=O)[C@H](C(C)C)NC(=O)[C@H](C)NC(=O)CSC[C@@H](C(=O)NCCOCCOCCOCCOCCC(N)=O)NC(=O)[C@H](Cc2ccc(O)cc2)N(C)C(=O)[C@H](Cc2ccccc2)NC(=O)[C@H](CCCNC(=N)N)NC(=O)[C@H](CCCCN)NC(=O)[C@H]([C@@H](C)CC)NC1=O [compound 503]
- Kd (SPR, hTfR, class symbols A-D, read-out: KD (column without head, continuation of the table series)): < 1 nM

Structure (SMILES): CC[C@H](C)[C@@H]1NC(=O)[C@H](Cc2ccc(OC)cc2)NC(=O)[C@H](Cc2ccc(O)cc2)NC(=O)[C@H](CC(N)=O)NC(=O)[C@H](Cc2c[nH]c3ccccc23)N(C)C(=O)[C@H](C(C)C)NC(=O)[C@H](Cc2cccc(Cl)c2)N(C)C(=O)[C@H](CCC(=O)O)NC(=O)[C@H](C)NC(=O)CSC[C@@H](C(=O)NCC(=O)NCC(=O)NCC(=O)NCC(=O)N[C@@H](CO)C(=O)N[C@@H](CO)C(=O)N[C@@H](CS)C(N)=O)NC(=O)[C@H](Cc2ccc(O)cc2)N(C)C(=O)[C@H](Cc2ccccc2)NC(=O)[C@H](CCC(=O)O)NC(=O)[C@H](CCCNC(=N)N)NC(=O)[C@H]([C@@H](C)CC)NC1=O [compound 231]
- Kd [2]: 1 to 100 nM

Structure (SMILES): CC[C@H](C)[C@@H]1NC(=O)[C@H](Cc2ccc(O)cc2)NC(=O)[C@H](Cc2ccc(Cl)cc2)NC(=O)[C@H](CC(N)=O)NC(=O)[C@H](Cc2c[nH]c3ccccc23)NC(=O)[C@H](C(C)C)NC(=O)[C@H](Cc2ccccc2)N(C)C(=O)[C@H](C(C)C)NC(=O)[C@H](C)NC(=O)CSC[C@@H](C(=O)NCC(=O)N[C@@H](CCCCN=[N+]=[N-])C(N)=O)NC(=O)[C@H](Cc2ccc(O)cc2)N(C)C(=O)[C@H](Cc2ccc(O)cc2)NC(=O)[C@H](CCCNC(=N)N)NC(=O)[C@H](CCCNC(=N)N)NC(=O)[C@H]([C@@H](C)CC)NC1=O [compound 277] ({CH2CO}-AV[NMeF]VWN[Phe(4-Cl)]YIIRRY[NMeY]CG[Lys(N3)]-NH2; thioether N-15)
- Kd [2]: 100 to 1000 nM

Structure (SMILES): CC[C@H](C)[C@@H]1NC(=O)[C@H](Cc2ccc(OC)cc2)NC(=O)[C@H](Cc2ccc(O)cc2)NC(=O)[C@H](CC(N)=O)NC(=O)[C@H](Cc2c[nH]c3ccccc23)N(C)C(=O)[C@H](C(C)C)NC(=O)[C@H](Cc2cccc(Cl)c2)N(C)C(=O)[C@H](C(C)C)NC(=O)[C@H](C)NC(=O)CSC[C@@H](C(N)=O)NC(=O)[C@H](Cc2ccc(O)cc2)N(C)C(=O)[C@H](Cc2cccnc2)NC(=O)[C@@H](CCCNC(=N)N)NC(=O)[C@H](CCCNC(=N)N)NC(=O)[C@H]([C@@H](C)CC)NC1=O [compound 460]
- Kd (SPR, hTfR, class symbols A-D, read-out: KD): 1 to 100 nM

Structure (SMILES): CC[C@H](C)[C@@H]1NC(=O)[C@H](Cc2ccc(O)cc2)NC(=O)[C@H](Cc2ccc(O)cc2)NC(=O)[C@H](CC(N)=O)NC(=O)[C@H](Cc2c[nH]c3ccccc23)NC(=O)[C@H](C(C)C)NC(=O)[C@H](Cc2ccccc2)NC(=O)[C@H](C(C)C)NC(=O)[C@H](C)NC(=O)CSC[C@@H](C(N)=O)NC(=O)[C@H](Cc2ccc(O)cc2)N(C)C(=O)[C@H](Cc2ccc(O)cc2)NC(=O)[C@H](CCCNC(=N)N)NC(=O)[C@H](CCCNC(=N)N)NC(=O)[C@H](CCCCN)NC1=O [compound 249] ({CH2CO}-AVFVWNYYIKRRY[NMeY]C-NH2; thioether N-15)
- Kd [2]: < 1 nM
